Laboratory results published in patent publication US20030153056A1, “Glycosyltransferase proteins” (priority 2000, published 2003).

How the values were obtained:
[1] = target: T1, Brainiac β1-3-N-acetylglucosaminyltransferase (Drosophila melanogaster, UniProt Q24157); assay: Substrate specificities of Brainiac β1-3-N-acetylglucosaminyltransferase (acceptor panel, microsomal preparations); type: biochemical; conditions: panel of mono- and disaccharides with aglycons and oligosaccharides
T1 construct: The full coding region of Brainiac was prepared by PCR using genomic DNA; made in house; host or cells: High Five insect cells (baculovirus vector pVL1393); microsomal fractions
T1 sequence (Q24157 1-325): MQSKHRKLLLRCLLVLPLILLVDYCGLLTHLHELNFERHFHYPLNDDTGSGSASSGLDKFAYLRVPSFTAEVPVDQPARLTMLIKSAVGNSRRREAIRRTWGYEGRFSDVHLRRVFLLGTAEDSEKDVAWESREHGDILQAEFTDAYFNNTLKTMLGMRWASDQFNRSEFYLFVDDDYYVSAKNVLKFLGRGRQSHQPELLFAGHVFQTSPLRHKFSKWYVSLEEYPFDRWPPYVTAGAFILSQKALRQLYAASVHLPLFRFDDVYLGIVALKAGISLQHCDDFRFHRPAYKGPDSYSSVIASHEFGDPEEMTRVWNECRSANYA
Procedure: Fringe-Myc and Fringe-NNN-myc were cloned into baculovirus vector pVL1393 (Pharmingen) and expressed in High Five™ cells. Microsomal fractions were prepared by hypotonic lysis ultracentrifugation and solubilised 1:2 (vol/vol) in 20 mM Cacodylate pH 6.5, 1% Triton-CF54, 5 MM MnCl2 containing Leupeptin and Aprotinin as described previously (Amado et al., 1998). For glycosyltransferase assays, 5 μl of this suspension were added to a total of 50 μl reaction mixture containing 25 mM Cacodylate pH 6.5, 0.25% Triton-CF54, 5 mM MnCl2, 500 mM free sugar, 100 μM UDP-^14C-sugar (1280-2000 cpm/nmol). Reactions were incubated at 37° C. for 45-60 minutes, followed by Dowex-1 anion exchange chromatography and scintillation counting of 50% of the flow-through.
Brainiac-full was cloned into baculovirus vector pVL1393 (Pharmingen) and expressed in High Five cells. […] Initial analysis of activity was done with five monosaccharides and four donor sugar nucleotides as described in FIG. 5 for Fringe. Assays with the acceptors listed in Table 1 were performed as described for Fringe except no additional detergent was added. Reactions with glycolipid substrates were performed in the presence of 0.5% N-octylglucoside in 50 ul reaction volume containing 10 μg glycolipid.
In the latter case the acceptor sugar was not determined.

[2] = target: T1, Brainiac β1-3-N-acetylglucosaminyltransferase; assay: as above; type: biochemical; conditions: microsomes of pVL-Brainiac infected High Five cells, background of irrelevant construct subtracted, donor UDP-GlcNAc

- Acceptor for Brainiac, in words (detailed analysis) [1]: not found to be acceptors
- Brainiac activity with substrate ([2]; substrate 2 mM): 0.00 nmol/h/mg
- Brainiac activity with substrate ([2]; substrate 20 mM): 0.00 nmol/h/mg
Compound: OC[C@H]1OC(O)[C@H](O)[C@@H](O)[C@H]1O (stereo partly drawn) [D-Gal]
